According to ChEMBL document CHEMBL4699634, “Series of Novel and Highly Potent Cyclic Peptide PCSK9 Inhibitors Derived from an mRNA Display Screen and Optimized via Structure-Based Design” (J Med Chem, 2020):
Numbered stars: 1 amine (or outer) side, 2 acyl side, 3 side chain; on linkers, the order of the positions; unused ones are H or OH. Bridge positions count the residues as written; N and C are the ends. Square brackets hold non-standard residues; d marks the D form. Peptide text beside a SMILES is read from it. * marks the point of attachment. Trp(5-F) = N[C@@H](Cc1c[nH]c2ccc(F)cc12)C(=O)O; Nle(6-COOH) = N[C@@H](CCCCC(=O)O)C(=O)O; X1 = O=C(CCSCc1cccc(CSCCN[*:1])c1)[*:2]; mXylylene = c1cc(C[*:1])cc(C[*:2])c1; Asu = N[C@@H](CCCCCC(=O)O)C(=O)O; PEG4 = NCCOCCOCCOCCOCCC(=O)O; αMeP = C[C@@]1(C(=O)O)CCCN1; Orn = NCCC[C@H](N)C(=O)O; X2 = COCCOCCOCCOCCC(=O)*; Nva = CCC[C@H](N)C(=O)O; Mpa = O=C(O)CCS

Tests used:
[1] = Cytotoxicity against Wistar rat isolated peritoneal cells assessed as reduction in cell viability up to 60 uM measured after 30 mins; type: cell-based; details: peritoneal macrophage cell, 0.5 h
[2] = Half life in C57BL/6 mouse whole blood at 100 uM by LC-MS/MS analysis; type: ADME, tissue-based
[3] = Enzymatic stability assessed as porcine pepsin-mediated compound hydrolysis by measuring parent compound remaining at 100 uM incubated for 1 hr by LC-MS/MS analysis; type: ADME, Sus scrofa; details: pig, read-out: Stabilty
Chymotrypsinogen A = Chymotrypsinogen A (Bos taurus, UniProt P00766); test: Enzymatic stability assessed as bovine pancreatic alpha-chymotrypsin-mediated compound hydrolysis by measuring parent compound remaining at 100 uM incubated for 1 hr by LC-MS/MS analysis; type: ADME; details: cattle, read-out: Stabilty
[4] = Induction of mast cell degranulation in Wistar rat isolated peritoneal cells assessed as effect on histamine release measured after 30 mins; type: tissue-based
[5] = biological target: Chymotrypsin-like elastase family member 1 (Sus scrofa, UniProt P00772); test: Enzymatic stability assessed as porcine type 4 pancreatic elastase-mediated compound hydrolysis by measuring parent compound remaining at 100 uM incubated for 1 hr by LC-MS/MS analysis; type: ADME; details: pig, read-out: Stabilty
[6] = Enzymatic stability assessed as bovine pancreatic trypsin-mediated compound hydrolysis by measuring parent compound remaining at 100 uM incubated for 1 hr by LC-MS/MS analysis; type: ADME, Bos taurus; details: cattle, read-out: Stabilty
[7] = biological target: Proprotein convertase subtilisin/kexin type 9 (Homo sapiens, UniProt Q8NBP7); test: Inhibition of AlexaFluor647-tagged cyclic peptide binding to avi-tagged-biotinylated human PCSK9 measured after 2 hrs by Lance Streptavidin Europium based FRET assay
[8] = AUC (0 to X) in C57BL/6 mouse at 1 mg/kg, iv by LC-MS/MS analysis; type: ADME, organism-based; set-up: dose 1 mg/kg; details: in vivo
[9] = Half life in C57BL/6 mouse at 1 mg/kg, iv by LC-MS/MS analysis; type: ADME, organism-based; details: in vivo
[10] = Volume of distribution at steady state in C57BL/6 mouse at 1 mg/kg, iv by LC-MS/MS analysis; type: ADME, organism-based; details: in vivo, read-out: Vdss
[11] = AUC (0 to infinity) in C57BL/6 mouse at 1 mg/kg, iv by LC-MS/MS analysis; type: ADME, organism-based; set-up: route intravenous, time infinity, dose 1 mg/kg; details: mouse, in vivo
[12] = Protein binding in mouse plasma at 2.5 uM measured after 4 hrs by equilibrium dialysis based LC-MS/MS analysis; type: ADME, cell-free; details: read-out: PPB (converted)
PCSK9/LDLR = PCSK9/LDLR (Homo sapiens, UniProt Q8NBP7); test: Inhibition of avi-tagged-biotinylated human PCSK9 interaction with His-tagged human LDLR EGFa domain by LANCE Ulight Streptavidin based TR-FRET assay; type: protein assay
[13] = Rattus norvegicus, Wistar, Mast cell, 0.5 h, read-out: EC50

Sequence of Chymotrypsin-like elastase family member 1 (P00772 whole entry): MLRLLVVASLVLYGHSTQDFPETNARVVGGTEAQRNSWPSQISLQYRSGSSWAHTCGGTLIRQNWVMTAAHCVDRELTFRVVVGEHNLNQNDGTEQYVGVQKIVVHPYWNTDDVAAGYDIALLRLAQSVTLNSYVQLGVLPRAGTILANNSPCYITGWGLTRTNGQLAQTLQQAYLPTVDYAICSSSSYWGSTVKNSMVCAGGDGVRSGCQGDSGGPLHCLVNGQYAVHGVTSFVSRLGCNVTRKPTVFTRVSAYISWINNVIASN
Sequence of PCSK9/LDLR (Q8NBP7 31-152 limits assumed): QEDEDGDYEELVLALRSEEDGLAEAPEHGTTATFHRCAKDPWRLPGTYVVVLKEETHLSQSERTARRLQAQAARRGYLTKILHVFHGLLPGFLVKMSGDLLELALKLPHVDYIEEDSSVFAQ
Sequence of PCSK9/LDLR (Q8NBP7 153-692 limits assumed): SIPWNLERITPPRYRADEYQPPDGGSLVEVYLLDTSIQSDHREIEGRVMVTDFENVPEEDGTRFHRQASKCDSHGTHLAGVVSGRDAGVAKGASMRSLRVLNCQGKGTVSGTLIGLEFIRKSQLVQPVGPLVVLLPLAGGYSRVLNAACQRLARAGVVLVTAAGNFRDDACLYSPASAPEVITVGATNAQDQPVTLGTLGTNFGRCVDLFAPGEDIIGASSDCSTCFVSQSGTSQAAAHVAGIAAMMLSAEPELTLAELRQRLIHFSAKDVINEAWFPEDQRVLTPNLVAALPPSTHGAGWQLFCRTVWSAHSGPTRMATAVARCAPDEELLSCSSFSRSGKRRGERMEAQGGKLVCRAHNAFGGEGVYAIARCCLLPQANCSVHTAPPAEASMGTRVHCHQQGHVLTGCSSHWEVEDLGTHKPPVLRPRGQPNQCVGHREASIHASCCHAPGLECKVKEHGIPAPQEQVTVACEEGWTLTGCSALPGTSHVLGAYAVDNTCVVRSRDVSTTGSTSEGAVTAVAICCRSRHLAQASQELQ
Sequence of PCSK9/LDLR (P01130 22-860 partner limits assumed): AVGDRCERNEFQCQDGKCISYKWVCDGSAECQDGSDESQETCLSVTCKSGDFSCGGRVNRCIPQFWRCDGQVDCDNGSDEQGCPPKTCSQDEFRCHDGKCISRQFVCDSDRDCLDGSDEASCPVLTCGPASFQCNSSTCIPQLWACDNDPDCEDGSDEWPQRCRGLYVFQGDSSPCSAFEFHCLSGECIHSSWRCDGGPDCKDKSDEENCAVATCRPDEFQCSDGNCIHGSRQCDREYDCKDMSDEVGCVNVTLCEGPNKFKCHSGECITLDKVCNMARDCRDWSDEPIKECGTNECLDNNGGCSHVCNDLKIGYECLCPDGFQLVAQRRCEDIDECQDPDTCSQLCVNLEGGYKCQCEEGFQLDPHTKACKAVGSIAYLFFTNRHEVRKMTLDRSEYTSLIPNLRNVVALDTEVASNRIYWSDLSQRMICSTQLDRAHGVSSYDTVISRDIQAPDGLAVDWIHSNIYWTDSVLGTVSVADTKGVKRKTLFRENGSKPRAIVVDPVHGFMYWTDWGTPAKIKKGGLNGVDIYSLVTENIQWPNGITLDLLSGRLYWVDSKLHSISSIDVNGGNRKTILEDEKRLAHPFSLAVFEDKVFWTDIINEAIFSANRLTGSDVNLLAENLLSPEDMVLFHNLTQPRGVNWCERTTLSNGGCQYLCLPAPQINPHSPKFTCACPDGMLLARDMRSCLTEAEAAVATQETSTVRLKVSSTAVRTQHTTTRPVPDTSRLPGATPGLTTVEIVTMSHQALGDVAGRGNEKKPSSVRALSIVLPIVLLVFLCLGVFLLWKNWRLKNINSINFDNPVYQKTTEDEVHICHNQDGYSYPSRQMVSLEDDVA
Sequence of Proprotein convertase subtilisin/kexin type 9 (Q8NBP7 31-152 limits assumed): as the sequence (Q8NBP7 31-152 limits assumed) above
Sequence of Proprotein convertase subtilisin/kexin type 9 (Q8NBP7 153-692 limits assumed): as the sequence (Q8NBP7 153-692 limits assumed) above

SMILES | Activity [1] | half-life at 100 µM [2] [h] | remaining at 1 h, 100 µM [3] [%] | remaining at 1 h, 100 µM (Chymotrypsinogen A) [%] | EC50 ([4]; mast cell) | remaining at 1 h, 100 µM [5] [%] | remaining at 1 h, 100 µM [6] [%] | Ki [7] [nM] | Ki (PCSK9/LDLR) [nM] | also measured
COCCOCCOCCOCCC(=O)NCCCC[C@@H]1NC(=O)CCSCc2cccc(c2)CSC[C@@H](C(N)=O)NC(=O)[C@]2(C)CCCN2C(=O)[C@H](Cc2ccc(O)cc2)NC(=O)[C@H](Cc2cnc[nH]2)NC(=O)[C@H](CC(=O)O)NC(=O)[C@H](Cc2c[nH]c3ccc(F)cc23)NC(=O)[C@H](Cc2c[nH]c3ccc(F)cc23)NC(=O)CNC1=O ([Mpa]K(X2)G[Trp(5-F)][Trp(5-F)]DHY[αMeP]C-NH2; linker 1-10 via mXylylene) | Non-Toxic | > 6 | 98.6 | 39.5 | Non-Toxic | 96.3 | 96 | 9.4 |  | 
C[C@H]1NC(=O)[C@H](CCCCN)NC(=O)CCSCc2cccc(c2)CSC[C@@H](C(N)=O)NC(=O)[C@]2(C)CCCN2C(=O)[C@H](Cc2ccc(O)cc2)NC(=O)[C@H]([C@@H](C)O)NC(=O)[C@@H]2C[C@H](F)CN2C(=O)[C@H](Cc2c[nH]c3ccc(F)cc23)NC(=O)[C@H](Cc2c[nH]c3ccc(F)cc23)NC1=O | Non-Toxic | > 6 | 98.1 | 100 |  | 100 | 95.9 | 2.1 |  | AUC [8]: 0.171 µM·h; half-life [9]: 1.6 h; Vd [10]: 0.37 L/kg; AUC [11]: 0.17152 µM·h; fraction unbound at 4 h, 2.5 µM [12]: 0.0167; EC50 [4, 13]: 3120 nM
C[C@@]12CCCN1C(=O)[C@H](Cc1ccc(O)cc1)NC(=O)[C@H](Cc1cnc[nH]1)NC(=O)[C@H](CC(=O)O)NC(=O)[C@H](Cc1c[nH]c3ccc(F)cc13)NC(=O)[C@H](Cc1c[nH]c3ccc(F)cc13)NC(=O)CNC(=O)[C@H](CCCN)NC(=O)CCSCc1cccc(c1)CSC[C@@H](C(N)=O)NC2=O ([Mpa][Orn]G[Trp(5-F)][Trp(5-F)]DHY[αMeP]C-NH2; linker 1-10 via mXylylene) | Non-Toxic |  |  |  | Non-Toxic |  |  | 14.3 | 132 | 
C[C@@H]1NC(=O)CCSCc2cccc(c2)CSC[C@@H](C(N)=O)NC(=O)[C@@H]2CCCN2C(=O)[C@H](Cc2ccc(O)cc2)NC(=O)[C@H](Cc2cnc[nH]2)NC(=O)[C@H](CC(=O)O)NC(=O)[C@H](Cc2c[nH]c3ccc(F)cc23)NC(=O)[C@H](Cc2c[nH]c3ccc(F)cc23)NC(=O)CNC1=O ([Mpa]AG[Trp(5-F)][Trp(5-F)]DHYPC-NH2; linker 1-10 via mXylylene) |  | 1.49 | 92.5 | 15.5 |  | 54.9 | 1 |  | 392 | 
C[C@@]12CCCN1C(=O)[C@H](Cc1ccc(O)cc1)NC(=O)[C@H](Cc1cnc[nH]1)NC(=O)[C@H](CC(=O)O)NC(=O)[C@H](Cc1c[nH]c3ccc(F)cc13)NC(=O)[C@H](Cc1c[nH]c3ccc(F)cc13)NC(=O)CNC(=O)[C@H](CCCCN)NC(=O)CCSCc1cccc(c1)CSCCNC2=O (cyclo(DHY[αMeP][X1]KG[Trp(5-F)][Trp(5-F)])) |  | 5.56 | 99.1 | 7.4 |  | 46.1 | 0.8 | 4.3 | 26.6 | 
COc1ccc(C[C@@H]2NC(=O)[C@H](Cc3cnc[nH]3)NC(=O)[C@H](CC(=O)O)NC(=O)[C@H](Cc3c[nH]c4ccc(F)cc34)NC(=O)[C@H](Cc3c[nH]c4ccc(F)cc34)NC(=O)[C@@H](C)NC(=O)[C@H](CCCCCC(=O)O)NC(=O)CCSCc3cccc(c3)CSCCNC(=O)[C@]3(C)CCCN3C2=O)cc1 (cyclo([Asu][dA][Trp(5-F)][Trp(5-F)]DHY(Me)[αMeP][X1])) | Non-Toxic |  |  |  | Non-Toxic |  |  | 80.7 |  | 
C[C@H]1NC(=O)[C@H](CCC(=O)O)NC(=O)CCSCc2cccc(c2)CSCCNC(=O)[C@]2(C)CCCN2C(=O)[C@H](Cc2ccc(O)cc2)NC(=O)[C@H](Cc2cnc[nH]2)NC(=O)[C@H](CC(=O)O)NC(=O)[C@H](Cc2c[nH]c3ccc(F)cc23)NC(=O)[C@H](Cc2c[nH]c3ccc(F)cc23)NC1=O | Non-Toxic |  |  |  |  |  |  |  | 202 | EC50 [4, 13]: 1000 nM
COc1ccc(C[C@@H]2NC(=O)[C@H](Cc3cnc[nH]3)NC(=O)[C@H](CC(=O)O)NC(=O)[C@H](Cc3c[nH]c4ccc(F)cc34)NC(=O)[C@H](Cc3c[nH]c4ccc(F)cc34)NC(=O)[C@@H](C)NC(=O)[C@H](CCCCO)NC(=O)CCSCc3cccc(c3)CSCCNC(=O)[C@]3(C)CCCN3C2=O)cc1 | Non-Toxic |  |  |  | Non-Toxic |  |  | 39 | 78.9 | 
COc1ccc(C[C@@H]2NC(=O)[C@H](Cc3cnc[nH]3)NC(=O)[C@H](CC(=O)O)NC(=O)[C@H](Cc3c[nH]c4ccc(F)cc34)NC(=O)[C@H](Cc3c[nH]c4ccc(F)cc34)NC(=O)[C@@H](C)NC(=O)[C@H](CCCCN(C)C)NC(=O)CCSCc3cccc(c3)CSCCNC(=O)[C@]3(C)CCCN3C2=O)cc1 | Non-Toxic |  |  |  |  |  |  | 4.2 |  | EC50 [4, 13]: 10000 nM
COc1ccc(C[C@@H]2NC(=O)[C@H](Cc3cnc[nH]3)NC(=O)[C@H](CC(=O)O)NC(=O)[C@H](Cc3c[nH]c4ccc(F)cc34)NC(=O)[C@H](Cc3c[nH]c4ccc(F)cc34)NC(=O)[C@@H](C)NC(=O)[C@H](CCCCC(=O)O)NC(=O)CCSCc3cccc(c3)CSCCNC(=O)[C@]3(C)CCCN3C2=O)cc1 (cyclo(DHY(Me)[αMeP][X1][Nle(6-COOH)][dA][Trp(5-F)][Trp(5-F)])) | Non-Toxic |  |  |  | Non-Toxic |  |  | 85.8 |  | 
C[C@@]12CCCN1C(=O)[C@H](Cc1ccc(O)cc1)NC(=O)[C@H](Cc1cnc[nH]1)NC(=O)[C@H](CC(=O)O)NC(=O)[C@H](Cc1c[nH]c3ccc(F)cc13)NC(=O)[C@H](Cc1c[nH]c3ccc(F)cc13)NC(=O)CNC(=O)[C@H](CCCCNC(=O)CCOCCOCCOCCOCCN)NC(=O)CCSCc1cccc(c1)CSC[C@@H](C(N)=O)NC2=O ([Mpa]K(PEG4)G[Trp(5-F)][Trp(5-F)]DHY[αMeP]C-NH2; linker 1-10 via mXylylene) | Non-Toxic |  |  |  | Non-Toxic |  |  | 10.7 |  | 
CCC[C@@H]1NC(=O)CCSCc2cccc(c2)CSC[C@@H](C(N)=O)NC(=O)[C@]2(C)CCCN2C(=O)[C@H](Cc2ccc(O)cc2)NC(=O)[C@H](Cc2cnc[nH]2)NC(=O)[C@H](CC(=O)O)NC(=O)[C@H](Cc2c[nH]c3ccc(F)cc23)NC(=O)[C@H](Cc2c[nH]c3ccc(F)cc23)NC(=O)CNC1=O ([Mpa][Nva]G[Trp(5-F)][Trp(5-F)]DHY[αMeP]C-NH2; linker 1-10 via mXylylene) | Non-Toxic |  |  |  |  |  |  | 35.2 | 94.7 | EC50 [4, 13]: 7000 nM
COc1ccc(C[C@@H]2NC(=O)[C@H](Cc3cnc[nH]3)NC(=O)[C@H](CC(=O)O)NC(=O)[C@H](Cc3c[nH]c4ccc(F)cc34)NC(=O)[C@H](Cc3c[nH]c4ccc(F)cc34)NC(=O)[C@@H](C)NC(=O)[C@H](CNC(=O)COCCOCCN)NC(=O)CCSCc3cccc(c3)CSCCNC(=O)[C@]3(C)CCCN3C2=O)cc1 | Non-Toxic |  |  |  | Non-Toxic |  |  | 8.2 |  | 
C[C@@H](O)[C@@H]1NC(=O)[C@@H]2CCCN2C(=O)[C@H](Cc2c[nH]c3ccc(F)cc23)NC(=O)[C@H](Cc2c[nH]c3ccc(F)cc23)NC(=O)CNC(=O)[C@H](CCCCN)NC(=O)CCSCc2cccc(c2)CSC[C@@H](C(N)=O)NC(=O)[C@]2(C)CCCN2C(=O)[C@H](Cc2ccc(O)cc2)NC1=O ([Mpa]KG[Trp(5-F)][Trp(5-F)]PTY[αMeP]C-NH2; linker 1-10 via mXylylene) |  | > 6 | 95 | 91 |  | 51 | 1.9 | 11.7 | 23.9 | 
